From patent US7842703B2, “Substituted benzofused derivatives and their use as vanilloid receptor ligands” (Glenmark Pharmaceuticals S.A., priority 2005, dated 2010)

Target: T1, Human TRPV1 expressing CHO cells (Homo sapiens, UniProt Q8NER1)
T1 construct: expressed in transfected cells; host or cells: CHO cells under G-418 selection
Assay: Screening for TRPV1 antagonist using the 45Calcium uptake assay (inhibition of capsaicin induced cellular uptake of radioactive calcium)
Format: cell-based
Details: for inhibition at 1 µM: CHO; for inhibition at 1 µM / % inhibition of ^45Ca uptake at 1 μM: test compound 1 μM, capsaicin 250 nM, relative to maximum ^45Ca uptake induced by capsaicin alone; for IC50: inhibition of capsaicin (250 nM) induced ^45Ca uptake
Method: The inhibition of TRPV1 receptor activation was followed as inhibition of capsaicin induced cellular uptake of radioactive calcium which represents calcium influx exclusively through the plasma membrane associated TRPV1 receptor.
Stock solution of capsaicin was made in ethanol and test compounds in 100% DMSO. Stock solutions were diluted to appropriate final concentrations in assay buffer keeping the final DMSO concentration between 0.1% and 0.55%.
^45Ca was used at a final concentration of 2.5 μCi/ml (^45Ca, ICN).
Assay buffer was composed of F-12 DMEM medium supplemented with 1.8 mM CaCl2 (final conc.) and 0.1% Bovine serum albumin. (BSA from SIGMA)
Wash buffer was tyrodes solution supplemented with 0.1% BSA and 1.8 mM calcium. Lysis buffer contained 50 mM Tris-HCl, pH7.5, 150 mM NaCl, 1% Triton X-100, 0.5% deoxycholate and 0.1% Sodium dodicyl sulphate (SDS, SIGMA)
Assay was carried out with some modifications the of procedure as described by Toth et. al. (See Toth A et. al., Life Sciences 73 p 487-498, 2003). Human TRPV1 expressing CHO cells were grown in F-12 DMEM (Dulbecco's modified Eagle's medium—GIBCO) medium with 10% FBS (fetal bovine serum Hyclone), 1% penicillin-streptomycin solution, 400 μg/ml of G-418. Cells were seeded 48 h prior to the assay in 96 well plates so as to get ˜50,000 cells per well on the day of experiment. Plates were incubated at 37° C. in the presence of 5% CO2. Cells were then washed twice with 200 μl of assay buffer and re-suspended in 144 μl of the same. Assay was carried out at 30° C. in total volume of 200 μl. Test compounds were added to the cells fifteen minutes before addition of capsaicin, Final concentration of capsaicin in the assay was 250 nM. After 5 minutes of agonist treatment, drug was washed out and wells rinsed with 300 μl of ice cold wash buffer 3×. The cells were lysed in 50 μl lysis buffer for 20 min. 40 μl of cell lysate was mixed with 150 μl of Microscint PS, left overnight for equilibration. Radioactivity in samples was measured as counts per minute (cpm) using Packard Biosciences Top Count. The drug/vehicle/capsaicin treated ^45Ca uptake values were normalized over basal ^45Ca value. Data was expressed as % inhibition of ^45Ca uptake by test compound with respect to maximum ^45Ca uptake induced by capsaicin alone. IC50 value was calculated from dose response curve by nonlinear regression analysis using GraphPadPRISM software.

T1 sequence (Q8NER1 whole entry): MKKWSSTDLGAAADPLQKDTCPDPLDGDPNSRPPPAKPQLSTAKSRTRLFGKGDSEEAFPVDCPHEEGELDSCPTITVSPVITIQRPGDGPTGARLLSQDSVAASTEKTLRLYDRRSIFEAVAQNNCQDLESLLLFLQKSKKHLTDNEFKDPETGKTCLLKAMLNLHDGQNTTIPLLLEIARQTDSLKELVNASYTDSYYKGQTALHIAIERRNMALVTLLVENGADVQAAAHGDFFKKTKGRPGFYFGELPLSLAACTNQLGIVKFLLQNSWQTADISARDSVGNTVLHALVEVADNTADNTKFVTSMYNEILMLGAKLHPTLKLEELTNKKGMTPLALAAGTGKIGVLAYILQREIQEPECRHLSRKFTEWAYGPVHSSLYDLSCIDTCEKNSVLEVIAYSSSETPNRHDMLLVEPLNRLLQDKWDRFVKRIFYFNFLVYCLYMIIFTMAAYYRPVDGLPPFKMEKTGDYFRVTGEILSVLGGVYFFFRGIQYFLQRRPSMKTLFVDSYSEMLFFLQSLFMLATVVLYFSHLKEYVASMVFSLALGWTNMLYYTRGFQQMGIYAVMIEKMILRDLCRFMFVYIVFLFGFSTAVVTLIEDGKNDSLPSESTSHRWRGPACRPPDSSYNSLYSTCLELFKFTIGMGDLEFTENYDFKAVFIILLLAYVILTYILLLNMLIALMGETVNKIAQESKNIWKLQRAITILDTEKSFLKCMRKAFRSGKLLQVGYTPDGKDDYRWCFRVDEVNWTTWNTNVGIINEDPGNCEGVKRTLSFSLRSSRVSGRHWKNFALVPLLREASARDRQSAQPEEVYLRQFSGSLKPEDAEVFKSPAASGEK

inhibition at 1 µM [%]	IC50 [nM]	% inhibition of ^45Ca uptake at 1 μM [%]	Molecule
> 50	14.4		Cc1cc2c(NC(=O)NC3CC4(CCC4)Oc4cc(OC(F)F)ccc43)cccc2cn1 (racemic) [Example 56, (±) 1-(7-Difluoromethoxy-3,4-dihydro-spiro[2H-1-benzopyran-2,1′-cyclobutane]-4-yl)-3-(3-methylisoquinolin-5-yl)urea]
< 50			O=C(Nc1cccc2cnccc12)NC1CC2(CCC2)Oc2cc(O)ccc21 (racemic) [Example 46, (±) 1-(3,4-Dihydro-7-hydroxy-spiro[2H-1-benzopyran-2,1′-cyclobutane]-4-yl)-3-(isoquinolin-5-yl)urea]
		<50	O=C(Nc1cccc2nsnc12)NC1CC2(CCC2)Oc2ccccc21 (stereo not shown) [Example 28, N-2,1,3-benzothiadiazol-4-yl-N′-3,3′,4,4′-tetrahydro-2′H-spiro[chromene-2,1′-cyclobutan]-4-ylurea (N-2,1,3-benzothiadiazol-4-yl-N′-3,4-dihydro-2H-spiro[chromene-2,1′-cyclobutan]-4-ylurea)]
	224	>50	O=C(Nc1cccc2cnccc12)NC1CC2(CCC2)S(=O)(=O)c2ccccc21 (racemic) [Example 82, (±) 1-(1,1-dioxo-3,4-dihydro-spiro[2H-1-benzothiopyran-2,1′cyclobutane]-4-yl)-3-(isoquinolin-5-yl)urea]
		<50	S=C(Nc1cccc2ccncc12)NC1CC2(CCC2)Oc2ccccc21 (stereo not shown) [Example 83, N′-isoquinolin-8-yl-N-3,3′,4,4′-tetrahydro-2′H-spiro[chromene-2,1′-cyclobutan]-4-ylthiourea (N′-isoquinolin-8-yl-N-3,4-dihydro-2H-spiro[chromene-2,1′-cyclobutan]-4-ylthiourea)]
		<50	(±) 1-(3,4-Dihydro-spiro[2H-1-benzopyran-2,1′-cyclobutane]-4-yl)-3-(6-fluoro-1,3-benzothiazol-2-yl)urea [Example 12]
> 50	104		O=C(Nc1cccc2c[n+]([O-])ccc12)NC1CC2(CCC2)Oc2ccccc21 (single isomer, unassigned; (+)) [Example 10, (+) 1-(3,4-Dihydro-spiro[2H-1-benzopyran-2,1′-cyclobutane]-4-yl)-3-(2-oxoisoquinolin-5-yl)urea]
< 50			O=C(NCc1ccccn1)NC1CC2(CCC2)Oc2ccccc21 (racemic) [Example 32, (±) 1-(3,4-Dihydro-spiro[2H-1-benzopyran-2,1′-cyclobutane]-4-yl)-3-(pyridin-2-ylmethyl)urea]
< 50			O=C(Nc1cccc2cnccc12)NC1CC2(CCC2)Oc2ccc(F)cc21 (single isomer, unassigned; (-)) [Example 44, (−) 1-(3,4-Dihydro-6-fluorospiro[2H-1-benzopyran-2,1′-cyclobutane]-4-yl)-3-(isoquinolin-5-yl)urea]
		<50	O=C(Nc1ncc(-c2ccc(Br)cc2)s1)NC1CC2(CCC2)Oc2ccccc21 (racemic) [Example 17, (±) 1-(3,4-Dihydro-spiro[2H-1-benzopyran-2,1′-cyclobutane]-4-yl)-3-[5-(4-bromophenyl)-1,3-thiazol-2-yl])urea]
> 50	462		O=C(Nc1cccc2cnccc12)NC1CC2(CCC2)Oc2c(Cl)cc(Cl)cc21 (racemic) [Example 66, (±) 1-(6,8-Dichloro-3,4-dihydro-spiro[2H-1-benzopyran-2,1′-cyclobutane]-4-yl)-3-(isoquinolin-5-yl)urea]
< 50			N#Cc1cccc2c1OC1(CCC1)CC2NC(=O)Nc1cccc2cnccc12 (racemic) [Example 58, (±) 1-(8-Cyano-3,4-dihydro-spiro[2H-1-benzopyran-2,1′-cyclobutane]-4-yl)-3-(isoquinolin-5-yl)urea]
> 50	917		Cc1nccc2c(NC(=O)NC3CC4(CCC4)Oc4ccc(Cl)cc43)cccc12 (racemic) [Example 74, (±) 1-(6-Chloro-3,4-dihydro-spiro[2H-1-benzopyran-2,1′-cyclobutane]-4-yl-3-(1-methylisoquinolin-5-yl)urea]
> 50	123		Cc1ccc2c(c1)C(NC(=O)Nc1cccc3cnccc13)CC1(CCC1)O2 (racemic) [Example 40, (±)-1-(3,4-Dihydro-6-methyl-spiro[2H-1-benzopyran-2,1′-cyclobutane]-4-yl)-3-(isoquinolin-5-yl)urea]
> 50	45		Cc1cc2c(cc1Cl)C(NC(=O)Nc1cccc3cnccc13)CC1(CCC1)O2 (racemic) [Example 69, (±) 1-(6-Chloro-3,4-dihydro-7-methyl-spiro[2H-1-benzopyran-2,1′-cyclobutane]-4-yl)-3-(isoquinolin-5-yl)urea]
> 50	5.2		O=C(Nc1cccc2cnccc12)NC1CC2(CCC2)Oc2ccc(F)cc21 (single isomer, unassigned; (+)) [Example 43, (+) 1-(3,4-Dihydro-6-fluoro-spiro[2H-1-benzopyran-2,1′-cyclobutane]-4-yl)-3-(isoquinolin-5-yl)urea]
	2.89	100	O=C(Nc1cccc2cnccc12)NC1CC2(CCC2)Oc2ccccc21 (racemic) [Example 3, (±) 1-(3,4-Dihydro-spiro-[2H-1-benzopyran-2,1′-cyclobutan]-4-yl)-3-(isoquinolin-5-ylurea]
46.9			O=C(Nc1cccc2ccncc12)NC1CC2(CCC2)Oc2ccccc21 (racemic) [Example 27, (±) 1-(3,4-Dihydrospiro[2H-1-benzopyran-2,1′-cyclobutan]-4-yl)-3-(isoquinolin-8-yl)urea]
> 50	307		O=C(Nc1cccc2cnccc12)NC1CC2(CCC2)Oc2ccc(Cl)cc21 (racemic) [Example 63, (±) 1-(6-Chloro-3,4-dihydro-spiro[2H-1-benzopyran-2,1′-cyclobutane]-4-yl)-3-(isoquinolin-5-yl)urea]
< 50			O=C(Nc1cccc2cnccc12)NC1CC2(CCC2)Oc2ccc(O)cc21 (racemic) [Example 45, (±) 1-(3,4-Dihydro-6-hydroxy-spiro[2H-1-benzopyran-2,1′-cyclobutane]-4-yl)-3-(isoquinolin-5-yl)urea]
> 50	23		Cc1nccc2c(NC(=O)NC3CC4(CCC4)Oc4ccc(F)cc43)cccc12 (racemic) [Example 75, (±) 1-(3,4-Dihydro-6-fluoro-spiro[2H-1-benzopyran-2,1′-cyclobutane]-4-yl)-3-(1-methylisoquinolin-5-yl)urea]
	304	>50	O=C(Nc1cccc2cnccc12)NC1CC2(CCC2)Oc2ccccc21 (single isomer, unassigned; (-)) [Example 5, (−) 1-(3,4-Dihydro-spiro-[2H-1-benzopyran-2,1′-cyclobutan]-4-yl)-3-(isoquinolin-5-yl)urea]
> 50	339		O=C(Nc1ccc(Cl)c2cnccc12)NC1CC2(CCC2)Oc2ccccc21 (racemic) [Example 6, (±) 1-(3,4-dihydro-spiro[2H-1-benzopyran-2,1′-cyclobutane]-4-yl)-3-(8-chloroisoquinolin-5-ylurea]
0			O=C(NC1CC2(CCC2)Oc2ccccc21)N1CCCCC1 (stereo not shown) [Example 39, N-3,4-dihydrospiro[chromene-2,1′-cyclobutan]-4-ylpiperidine-1-carboxamide]
> 50	147		Cn1ncc2cc(NC(=O)NC3CC4(CCC4)Oc4ccccc43)ccc21 (racemic) [Example 13, (±) 1-(3,4-Dihydro-spiro[2H-1-benzopyran-2,1′-cyclobutane]-4-yl)-3-(1-methyl-1H-indazol-5-yl)urea]
	7.8	>50	(±) 1-(3,4-Dihydro-6-fluoro-spiro[2H-1-benzopyran-2,1′-cyclobutane]-4-yl)-3-(isoquinolin-5-yl)urea [Example 50]
> 50	183		Cc1cc2c(NC(=O)NC3CC4(CCC4)Oc4ccccc43)cccc2cn1 (racemic) [Example 7, (±) 1-(3,4-Dihydro-spiro[2H-1-benzopyran-2,1′-cyclobutane]-4-yl)-3-(3-methylisoquinolin-5-yl)urea]
